Experimental data published in patent US20250034171A1, “IMIDAZOPYRIDINE AMIDES AND RELATED COMPOUNDS FOR USE IN THE TREATMENT OF BACTERIAL INFECTIONS” (priority 2021, published 2025).
≈ marks a conversion by molar mass, not a printed value. Like-named read-outs stand apart in the source and are kept apart here.

Assays:
[1] = system: Salmonella typhimurium Ames II Mixed Strains (TA7001-TA7006) and TA98; test: Genotoxicity assay (AmesIIb mutagenicity test); assay type: cell-based; details: Salmonella typhimurium; also: key: an AmesIIb score of 1 shows no genotoxicity signals
Source text: The aim is to evaluate compounds (and/or their metabolites) for their ability to induce reverse mutations in a gene of histidine-requiring Salmonella typhimurium strains to produce histidine-independent strains of these bacteria, in the absence and in the presence of a mammalian metabolic activation system.
Point mutations were made in the histidine (His) operon in Salmonella typhimurium, rendering the bacteria incapable of producing histidine. These single base substitutions are positioned at strategic points within the His gene, resulting in his-organisms that cannot grow unless histidine is supplied. When a mutagenic event occurs, base substitutions within the His gene then cause the reversion of the his-Ames II™ strains to His.
A chemical's mutagenic potential is assessed by exposing these his-organisms to varying concentrations of chemical and selecting for the reversion event. Medium lacking histidine is used for this selection which allows only those cells that have undergone the his- to His reversion to survive and grow.
The assay may be performed using a kit and instructions from Xenometric. The two strains provided in the Xenometric kit are the Ames II™ Mixed Strains and TA98. The Ames II™ Mixed Strains contains an equimolar mixture of the Ames II™ TA7001-TA7006 strains. Individually, these strains are designed to revert by only one specific base-pair substitution out of six possible changes. Thus, when mixed, all six base substitution mutations can be represented in one culture. This kit also contains TA98 for the detection of frameshift mutations.

[2] = system: Mycobacterium tuberculosis strain H37Rv; test: Test 2: MIC determination against M. tuberculosis, resazurin fluorescence; assay type: cell-based; details: Test 2, M. tuberculosis H37Rv; for MIC90 / IC50: Mycobacterium tuberculosis, H37RV; for MIC90: read-out: Bacterial activity MIC90; for IC50: read-out: Bacterial activity pMIC50 (converted)
[3] = HTChem stab assay (chemical stability in buffer pH2, pH4 and pH7 vs DMSO reference); assay type: physicochemical; details: 72 h, 50 µM; for Chemical stability data, Buffer pH2: pH 2; for Chemical stability data, Buffer pH4: pH 4; for Chemical stability data, Buffer pH7: pH 7
Procedure: HTChem stab assay was used to assess the chemical stability of the compounds. 72 h stirring at rt in a buffer pH2, pH4 and pH7 vs a reference DMSO solution. HTChem stab assay is based on the handbook of Pharmaceutical Stress Testing, Predicting Drug Degradation, second edition, authors Baertschi, Alsante, Reed ISBN 978-143980179-6.
Compounds were plated (1 μl 10 mM DMSO stock in 96 well plate (DMSO control+3 pH conditions), one plate per condition).
200 μL of respectively DMSO, Buffer/DMSO mix pH2, Buffer/DMSO mix pH4 and Buffer/DMSO mix pH7 was added.
After 72 h shaking (300 rpm) at room temperature the samples were analysed by LC/UV/MS. Chromatograms of samples (stability conditions) were compared with the chromatograms of control sample (DMSO). Extra peaks were flagged and identified by mass spectrometry. Sample purity (reference included) were reported.
• pH3 buffer: For 11; weigh 4.14 g NaH2PO4·H2O, add 600 ml H2O, add H3PO4 to pH3, add H2O to 1000 ml. Filter over 0.2 μm and store at 4° C. Expires after 30 days. • pH6 buffer: For 1 l; weigh 4.14 g NaH2PO4·H2O, add 600 ml H2O, add 1N NaOH to pH6, add H2O to 1000 ml. Filter over […] and store at 4° C. Expires after 30 days.
• pH2 Buffer/DMSO (StabSolvent): mix 2 parts of HCl 0.1N with 1 part of DMSO • pH4 Buffer/DMSO (StabSolvent): mix 2 parts of buffer pH3 with 1 part of DMSO • pH7 Buffer/DMSO (StabSolvent): mix 2 parts of buffer pH6 with 1 part of DMSO measure pH prior to use.
Instrument: Acquity UPLC; Column: Acquity HSS T3, 50 mm length×2.1 mm i.d., 1.8 μm particle size. Detectors: PDA (250-350 nm) and SQD2 (90-1500m/z). Mobile phase A: 0.1% Formic acid in water; Mobile phase B: 0.1% Formic acid in Acetonitrile.
Injection volume: 5 μL, flow rate 0.6 mL/min.
Data processing including peak integration and identification was done with Waters OpenLynx software.

[4] = Metabolic stability in liver microsomes (intrinsic clearance); assay type: in vitro ADME
In short: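 Compound (typically 1 μM) incubated at 37° C with liver microsomes (0.5 mg/ml protein) of selected species, 1 mM NADPH, 1 mM MgCl2, 0.1 M phosphate pH 7.4, sampled 0–60 min. Parent remaining measured by LC-MS/MS; t1/2 from log-linear slope, then Clint in μl/min/mg protein.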

[5] = mouse, microsomes, pH 7.4, Metabolic Stability Half life (mouse, min.)
[6] = mouse, microsomes, pH 7.4, mouse liver microsomes, read-out: Metabolic Stability (liver microsome intrinsic clearance) Clearance (mouse, μl/min./mg protein)

CCc1nc2ncc(Cl)cn2c1C(=O)NCc1ccc(-c2nc3n(n2)CCC(C(F)(F)F)C3)cc1 (single isomer, unassigned) [Compound 10a]
GeneTox AmesIIb Score [1]: 1 | Bacterial activity pMIC50 [2]: <6.301 | Chemical stability data, Vehicle DMSO [3]: 100% | Chemical stability data, Buffer pH2 [3]: 84% | Chemical stability data, Buffer pH4 [3]: 76% | Chemical stability data, Buffer pH7 [3]: 97% | half-life at 1 µM [4, 5]: > 3 h | microsomal CLint at 1 µM [4, 6]: < 7.7 µL/min/mg

CCc1nc2ncc(Cl)cn2c1C(=O)NCc1ccc(-c2nc3n(n2)CCC(C(F)(F)F)C3)cc1 (single isomer, unassigned) [Compound 10b]
GeneTox AmesIIb Score [1]: 1 | MIC90 [2]: 0.021 µM (≈ 10.6 ng/mL) | Bacterial activity pMIC50 [2]: 8.207 | Chemical stability data, Vehicle DMSO [3]: 96% | Chemical stability data, Buffer pH2 [3]: 81% | Chemical stability data, Buffer pH4 [3]: 71% | Chemical stability data, Buffer pH7 [3]: 92% | Metabolic Stability (liver microsome intrinsic clearance) Clearance (mouse, μl/min./mg protein) ([4]; mouse liver microsomes): 11.1 μl/min./mg protein | Metabolic Stability Half life (mouse, min.) ([4]; mouse, microsomes, 1 µM, pH 7.4): 2.08 h

CCc1nc2ncc(C)cn2c1C(=O)NCc1ccc(-c2nc3n(n2)CCC(C(F)(F)F)C3)cc1 (stereo not shown) [Compound 1ab]
GeneTox AmesIIb Score [1]: 1 | MIC90 [2]: 0.028 µM (≈ 13.5 ng/mL) | IC50 [2]: 9550 pM | Chemical stability data, Vehicle DMSO [3]: 100% | Chemical stability data, Buffer pH2 [3]: 100% | Chemical stability data, Buffer pH4 [3]: 100% | Chemical stability data, Buffer pH7 [3]: 100% | half-life at 1 µM ([4]; human, microsomes, pH 7.4, Metabolic Stability Half life (human, min.)): > 3 h | microsomal CLint at 1 µM ([4]; human, microsomes, pH 7.4, human liver microsomes, read-out: Metabolic Stability (liver microsome intrinsic clearance) Clearance (human, μl/min./mg protein)): < 7.7 µL/min/mg | half-life at 1 µM [4, 5]: > 3 h | microsomal CLint at 1 µM [4, 6]: < 7.7 µL/min/mg

CCc1nc2ncc(C)cn2c1C(=O)NCc1ccc(-c2nc3n(n2)CCC(C)C3)cc1 (stereo not shown) [Compound 4ab]
GeneTox AmesIIb Score [1]: 1 | MIC90 [2]: 0.017 µM (≈ 7.3 ng/mL) | IC50 [2]: 7050 pM | Chemical stability data, Vehicle DMSO [3]: 98% | Chemical stability data, Buffer pH2 [3]: 98% | Chemical stability data, Buffer pH4 [3]: 98% | Chemical stability data, Buffer pH7 [3]: 98% | half-life at 1 µM [4, 5]: 2.75 h | microsomal CLint at 1 µM [4, 6]: 8.38 µL/min/mg

CCc1nc2nc(C)ccn2c1C(=O)NCc1ccc(-c2nc3n(n2)CCC(C(F)(F)F)C3)cc1 (stereo not shown) [Compound 5ab]
GeneTox AmesIIb Score [1]: 1 | MIC90 [2]: 0.023 µM (≈ 11.1 ng/mL) | IC50 [2]: 8280 pM | Chemical stability data, Vehicle DMSO [3]: 94% | Chemical stability data, Buffer pH2 [3]: 95% | Chemical stability data, Buffer pH4 [3]: 96% | Chemical stability data, Buffer pH7 [3]: 96% | half-life at 1 µM [4, 5]: > 3 h | microsomal CLint at 1 µM [4, 6]: < 7.7 µL/min/mg

CCc1nc2ncc(OC)cn2c1C(=O)NCc1ccc(-c2nc3n(n2)CCC(C(F)(F)F)C3)cc1 (stereo not shown) [Compound 6ab]
GeneTox AmesIIb Score [1]: 1 | MIC90 [2]: 0.007 µM (≈ 3.5 ng/mL) | IC50 [2]: 3480 pM | Chemical stability data, Vehicle DMSO [3]: 93% | Chemical stability data, Buffer pH2 [3]: 100% | Chemical stability data, Buffer pH4 [3]: 100% | Chemical stability data, Buffer pH7 [3]: 100% | half-life at 1 µM [4, 5]: 1.62 h | microsomal CLint at 1 µM [4, 6]: 14.2 µL/min/mg

CCc1nc2nc(C)c(C)cn2c1C(=O)NCc1ccc(-c2nc3n(n2)CCC(C(F)(F)F)C3)cc1 (stereo not shown) [Compound 9ab]
GeneTox AmesIIb Score [1]: 1 | MIC90 [2]: 0.011 µM (≈ 5.47 ng/mL) | IC50 [2]: 4940 pM | Chemical stability data, Vehicle DMSO [3]: 100% | Chemical stability data, Buffer pH2 [3]: 100% | Chemical stability data, Buffer pH4 [3]: 100% | Chemical stability data, Buffer pH7 [3]: 100% | half-life at 1 µM [4, 5]: 1.66 h | microsomal CLint at 1 µM [4, 6]: 13.9 µL/min/mg
